The values below come from paper PMC11413853, “Discovery of VU6007496: Challenges in the Development of an M1 Positive Allosteric Modulator Backup Candidate” (ACS Chemical Neuroscience, 2024).

Read-outs that look alike come from different tables or passages of the source.

One data set deals with T1, P-gp.
T1 construct: host or cells: MDR1-MDCK cell monolayers
In words: MDCK-MDR1 P-gp efflux and permeability. To be noted: for P-gp ER / efflux ratio at 2 h: MDCK-MDR1 efflux ratio; for Papp at 2 h / efflux ratio at 2 h: dog; for Papp at 2 h: MDCK-MDR1; for efflux ratio at 2 h: read-out: P-gp ER. The data set is classed as in vitro ADME. Further details: efflux ratio at 2 h / Papp at 2 h: dose or concentration left out as unconfirmed. On the procedure:
In-vitro determination of blood-brain barrier penetration potential
Blood-brain barrier penetration was determined using MDR1-MDCK cell monolayers by Absorption Systems, following their protocol. In short, compounds were incubated […] final […]
concentration on one side of the cell monolayer for 2 hours. Compounds concentration on either side of the monolayer was determined by LC-MS/MS and apparent permeability and efflux ratio

The subject of another data set is rM2-5. In words: Muscarinic selectivity, rat M2-5. The data set is classed as cell-based.
Data set [1] is described as follows: Predicted hepatic clearance, rat hepatic microsomes. The data set is classed as in vitro ADME. On the procedure: Intrinsic clearance: Human or rat hepatic microsomes (0.5 mg/mL) and 1 µM test compound were incubated in 100 mM potassium phosphate pH 7.4 buffer with 3 mM MgCl2 at 37 °C with constant shaking. After a 5 min preincubation, the reaction was initiated by the addition of NADPH (1 mM). At selected time intervals (0, 3, 7, 15, 25, and 45 min), aliquots were taken and subsequently placed into a 96-well plate containing cold acetonitrile with internal standard (50 ng/mL carbamazepine). Plates were then centrifuged at 3000 rcf (4 °C) for 10 min, and the supernatant was transferred to a separate 96-well plate and diluted 1:1 with water for LC/MS/MS analysis. The in vitro half-life ( 1/2, min, Eq. 1), intrinsic clearance (CLint, mL/min/kg, Eq. 2), and subsequent predicted hepatic clearance (CLhep, mL/min/kg, Eq. 3) was determined employing the […]
where k represents the slope from linear regression analysis of the natural log percent remaining of a test compound as a function of incubation time […]
(2) CLint = in vitroT1/2 x mg microsomes x gram liver x kg body wt ascale-up factors: of 20 (human) or 45 (rat) […]
where Qh (hepatic blood flow, mL/min/kg) is 21 (human) or 70 (rat).
LC/MS/MS Bioanalysis of Samples from Plasma Protein Binding and Intrinsic Clearance […]
Samples were analyzed on a Thermo Electron TSQ Quantum Ultra triple quad mass spectrometer (San Jose, CA) via electrospray ionization (ESI) with two Themo Electron Accella pumps (San Jose, CA), and a Leap Technologies CTC PAL autosampler (Carrboro, NC). Analytes were separated by gradient elution on a dual column system with two Thermo Hypersil Gold (2.1 x 30 mm, 1.9 µm) columns (San Jose, CA) thermostated at 40 °C. HPLC mobile phase A was 0.1% formic acid in water and mobile phase B was 0.1% formic acid in acetonitrile. The gradient started […]
for 0.2 min; returned to 10% B in 0.1 min. The total run time was 1.3 min and the HPLC flow rate was 0.8 mL/min. […]

Another data set deals with T2, human M1 (Homo sapiens, UniProt P11229).
T2 sequence (P11229 1-460): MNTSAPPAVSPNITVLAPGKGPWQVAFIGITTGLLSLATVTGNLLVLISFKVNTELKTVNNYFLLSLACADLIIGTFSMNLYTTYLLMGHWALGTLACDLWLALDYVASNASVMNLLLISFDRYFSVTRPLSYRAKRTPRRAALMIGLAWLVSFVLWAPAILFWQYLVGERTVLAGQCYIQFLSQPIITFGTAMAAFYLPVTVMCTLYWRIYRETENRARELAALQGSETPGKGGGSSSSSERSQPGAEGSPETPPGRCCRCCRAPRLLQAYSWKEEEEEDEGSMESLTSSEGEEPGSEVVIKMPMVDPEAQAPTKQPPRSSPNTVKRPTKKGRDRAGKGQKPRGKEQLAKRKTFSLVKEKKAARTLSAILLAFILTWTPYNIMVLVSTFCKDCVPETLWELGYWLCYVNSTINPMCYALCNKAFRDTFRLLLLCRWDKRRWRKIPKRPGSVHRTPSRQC
Briefly: Calcium mobilization assay, human M1 (agonist and PAM modes). As to conditions: for hM1 PAM AChmax (%) / hM1 Agonist AChmax (%): % ACh max. In kind it is cell-based.

Data set [2] is described as follows: Plasma protein binding, human. In kind it is in vitro ADME. As to conditions: pH 7.4, read-out: fu,plasma human. On the procedure: Plasma protein binding and Brain homogenate binding: Determination of fraction unbound (f u) in plasma was conducted in vitro via equilibrium dialysis using HTDialysis (HTD) membrane plates. The top half of the plate was filled with 100 uL of Dubelco’s Phosphate Buffered Saline, pH 7.4 (DPBS). Compounds were diluted into plasma from each species (5 µM final concentration), which was aliquoted in triplicate to the ‘bottom half’ of the prepared HTD plate wells. The HTD plate was sealed and incubated for 6 hours at 37 °C. Following incubation, each well (both top and bottom halves) were transferred (20 µL) to the corresponding wells of a 96-shallow-well (V-bottom) plate. The daughter plates were then matrix-matched (DPBS side wells received equal volume of plasma, and plasma side wells received equal volume of DPBS), and extraction solution (120 µL; acetonitrile containing 50 nM carbamazepine as IS) was added to all wells of both daughter plates to precipitate protein and extract test article. The plates were then sealed and centrifuged (3500 rcf) for 10 minutes at ambient temperature. Supernatant (60 µL) from each well of the daughter plates was then transferred to the corresponding wells of new daughter plates (96-shallow-well, V bottom) containing water (Milli-Q, 60 µL/well), and the plates were sealed in preparation for LC-MS/MS analysis (see LC-MS/MS analysis method below).
The unbound fraction (f u) was calculated following the equation below, and mean values for each species were calculated from 3 replicates. […]
Fraction unbound for both plasma and brain samples was determined using Equation 4.
Equation 4 Determination of fraction unbound in plasma.

A further data set concerns the target CYP2C9 (Homo sapiens, UniProt P11712). In words: CYP inhibition, 2C9. The data set is classed as in vitro ADME.
The mark [3] stands for this setting: PAM mode, read-out: hM1 PAM EC50.
[4] abbreviates: agonist mode, read-out: hM1 Agonist EC50.
[5] abbreviates: hM1 PAM EC50, PAM mode, read-out: hM1 PAM pEC50 (converted).
Setting [6] is: agonist mode, read-out: human M1 agonism EC50.

CYP2C9, sequence (P11712 whole entry): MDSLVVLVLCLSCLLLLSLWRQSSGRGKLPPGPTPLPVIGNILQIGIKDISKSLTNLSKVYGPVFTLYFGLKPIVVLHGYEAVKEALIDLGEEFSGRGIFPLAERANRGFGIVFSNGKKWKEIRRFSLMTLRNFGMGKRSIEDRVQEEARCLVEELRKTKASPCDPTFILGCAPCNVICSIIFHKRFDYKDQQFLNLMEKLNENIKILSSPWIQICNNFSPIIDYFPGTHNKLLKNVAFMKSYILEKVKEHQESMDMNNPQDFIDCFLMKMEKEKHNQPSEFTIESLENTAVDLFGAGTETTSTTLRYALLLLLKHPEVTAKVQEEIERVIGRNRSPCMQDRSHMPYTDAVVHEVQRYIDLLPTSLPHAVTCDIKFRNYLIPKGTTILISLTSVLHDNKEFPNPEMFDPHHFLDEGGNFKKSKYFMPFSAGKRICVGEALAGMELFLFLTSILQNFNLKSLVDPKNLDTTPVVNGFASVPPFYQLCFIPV

Take `Cn1ccc(-c2ccc(Cc3cc(C(=O)NC4CCOCC4)nc4ccn(C)c34)cc2)n1` [compound 11]: the “P-gp ER” value in the data set with P-gp was 3.5. Moreover, the Papp at 2 h with P-gp was determined as 12.8 ×10⁻⁶ cm/s. Also, the efflux ratio at 2 h with P-gp amounted to 3.5. For the same compound, the EC50 in the data set with rM2-5 is over 30 µM; on human M1 (setting [3]), 0.228 µM; at human M1 (setting [4]) it was over 10 µM; on human M1 (setting [5]), 0.166 µM. In data set [1], the “Predicted CLhep, rat” value was 38 mL/min/kg. Further, the “hM1 PAM AChmax (%)” value on human M1 (PAM mode) is on record as 80%. Further, the “hM1 Agonist AChmax (%)” value on human M1 (agonist mode) is listed as 24%. Besides, in data set [2], the fraction unbound at 6 h, 5 µM is 0.016. Moreover, the IC50 against CYP2C9 turned out to be 28.5 µM.

Turning to `Cn1ccc(-c2ccc(Cc3cc(C(=O)NC4CCOCC4)nc4ccsc34)cc2)n1` [compound 12], the “P-gp ER” value with P-gp worked out at 0.8. Further, the Papp at 2 h with P-gp is 26.8 ×10⁻⁶ cm/s. Also, in the data set on P-gp, the efflux ratio at 2 h was found to be 0.8. In addition, the EC50 in the data set on rM2-5 is over 30 µM; at human M1 (setting [3]), 0.149 µM; on human M1 (setting [4]), 3.06 µM; at human M1 (setting [6]), 3.1 µM; at human M1 (setting [5]), 0.132 µM. The “Predicted CLhep, rat” value in data set [1] is on record as 33 mL/min/kg. In addition, the “hM1 PAM AChmax (%)” value at human M1 (PAM mode) is 73%. The “hM1 Agonist AChmax (%)” value at human M1 (agonist mode) was 38%. In data set [2], the fraction unbound at 6 h, 5 µM worked out at 0.005. Moreover, the IC50 on CYP2C9 is 16.6 µM.

Turning to `Cn1ccc2nc(C(=O)NC3CCOCC3)cc(Cc3ccc(-c4cc[nH]n4)cc3)c21` [compound 24], in the data set on P-gp, the Papp at 2 h worked out at 2 ×10⁻⁶ cm/s and the efflux ratio at 2 h was found to be 31.9. Also, the “activity on rat M2–5” value in the data set with rM2-5 is “inactive”. Besides, the “Predicted CLhep, rat” value in data set [1] is 44 mL/min/kg. Moreover, on human M1 (PAM mode), the “hM1 PAM AChmax (%)” value worked out at 73%. For the same compound, at human M1 (setting [3]), the EC50 came to 0.144 µM. For the same compound, at human M1 (agonist mode), the “hM1 Agonist AChmax (%)” value worked out at 36%. At human M1 (setting [6]), the EC50 was determined as 2.1 µM. In data set [2], the fraction unbound at 6 h, 5 µM is 0.047. The compound also showed an IC50 on CYP2C9 of over 30 µM.

Broadly, the Papp is the rate of passage across a membrane or cell layer, normalised by area and donor concentration. As usually defined, the IC50 is the concentration that gives 50% inhibition.
